US9168247B2, “Beta carboline derivatives useful in the treatment of proliferative disorders” (FACULTES UNIVERSITAIRES NOTRE DAME DE LA PAIX, priority 2010, dated 2015)
Where two headings read alike, the source gives them in different places.

Assays:
[1] = tested on: human cancer cell lines (U373, T98G, Hs683, OE21, OE33); experiment: MTT test, mean over the cancer cell lines; format: cell-based; details: mean over the cancer cell lines, MTT test, read-out: IC50 Mean ± SEM
Method: (§1) MTT tests were performed in order to rapidly, i.e., within 5 days, measure the effect of the present compounds on the overall cell growth. The test measured the number of metabolically active living cells that were able to transform the yellow product 3-(4,5-dimethylthiazol-2-yl)-2,5-diphenyl tetrazolium bromide (herein referred as MTT) into the blue product formazan dye by mitochondrial reduction. The amount of formazan obtained at the end of the experiment, measured by means of a spectrophotometer, is directly proportional to the number of living cells. Optical density determination thus enabled a quantitative measurement of the effect of the investigated compounds as compared to the control condition (untreated cells) and/or to other reference compounds.
(§2) Five human cancer cell lines set forth in Table 3 were used in the MTT tests. These cancer cell lines cover two histological cancer types including glioma (Hs683, T98G, U373), and oesophageal (OE21, OE33) cancers. The U373 cell line is apoptosis-resistant but autophagy-sensitive.
(§3) To perform the assay, cells were allowed to grow in 96-well micro-wells with a flat bottom with an amount of 100 μl of cell suspension per well with 5,000 to 8,000 cells/well depending on the cell type used. Each cell line was seeded in its appropriate culture medium.
(§4) The detailed experimental procedure was as follows: after a 24-hour period of incubation at 37° C., the culture medium was replaced by 100 μl of fresh medium in which the tested compound was previously dissolved, at the following molar concentrations: 1×10^−8 M, 5×10^−8 M, 1×10^−7 M, 5×10^−7 M, 1×10^−6 M, 5×10^−6 M, 1×10^−5 M, 5×10^−5 M and 1×10^−4 M. Each experiment was performed in sestuplicate (6 times).
(§5) After 72 hours of incubation at 37° C. with (experimental conditions) or without (control condition) the compound to be tested, the medium was replaced by 100 μl MTT dissolved in RPMI (1640 without phenol red) at a concentration of 0.5 or 1 mg/ml. The micro-wells were subsequently incubated during 3 hours and a half at 37° C. and centrifuged at 1300 rpm during 10 minutes. MTT was removed and formazan crystals formed were dissolved in […]. The micro-wells were shaken for 5 minutes and read on a spectrophotometer at wavelengths of 570 nm (maximal formazan absorbance).
(§6) For each experimental condition, the mean optical density was calculated, allowing the determination of the percentage of remaining living cells in comparison to the control.
(§7) The origin of all the cell lines we used, along with their biological characteristics, and the validation procedures of the MTT colorimetric assay as employed here are fully detailed in Van Quaquebeke et al., 2005, J Med Chem 48:849-856; Ingrassia et al., 2009, J Med Chem 52:1100-1114; Mathieu et al., 2009, J Cell Mol Med, Feb. 20, 2009.

[2] = tested on: OE21 oesophageal cancer cells; experiment: MTT test, overall cell growth, OE21; format: cell-based, human
Method: as §1, §2, §3, §4, §5, §6, §7

U373 glioma cells = experiment: MTT test, overall cell growth, U373; format: cell-based, human; details: 72 hours of incubation
Method: as §1, §2, §3, §4, §5, §6, §7

Hs683 glioma cells = experiment: MTT test, overall cell growth, Hs683; format: cell-based, human
Method: as §1, §2, §3, §4, §5, §6, §7

T98G glioma cells = experiment: MTT test, overall cell growth, T98G; format: cell-based, human; details: 72 hours of incubation
Method: as §1, §2, §3, §4, §5, §6, §7

[3] = tested on: OE33 oesophageal cancer cells; experiment: MTT test, overall cell growth, OE33; format: cell-based, human; details: Homo sapiens, OE33, 72 hours of incubation
Method: as §1, §2, §3, §4, §5, §6, §7

U373 cells = experiment: Cellular imaging (videomicroscopy) of cultured U373 cells: antiproliferative class and global growth ratio; format: cell-based, human; details: cellular imaging of cultured U373 cells over three consecutive days
Source text: The effects of the di- and tri-substituted beta-carboline derivatives as described herein can also be determined on cell proliferation, migration and morphology by means of a cellular imaging approach (Debeir et al., Cytometry 60:29-40, 2004; Debeir et al., IEEE Trans Med Imaging 24:697-711, 2005) either in, e.g., the human U373-MG glioma cell line, which is apoptosis-resistant but autophagy-sensitive (Lefranc F et al., Neurosurgery 2008) or in, e.g., the human A549 non-small-cell-lung cancer cell line, which is apoptosis-resistant and autophagy-resistant (Mijatovic T et al., Neoplasia 2006, May; 8(5):402-12).
[…] The experiments are conducted in quadruplicates.
The behaviour of the cells, in terms of morphology, growth and death are thus investigated. The effect on the overall growth is measured by counting the number of cells on the first (0 h) and the last image (72 h) of each film. The global growth ratio (GGR) is then deduced by dividing the number of cells on the last image by the number of cells on the first image. The ratio GGRtreated cells/GGRcontrol cells is further calculated thereby providing a value that describes the effect of compounds of the present invention on the overall cell growth.
The methodology is fully described and validated in Debeir et al., 2008, Exp Cell Res 314:2985-2998 and Mathieu et al., 2009, J Cell Mol Med, Feb. 20, 2009.

[4] = Homo sapiens, OE21, 72 hours of incubation
[5] = Homo sapiens, Hs 683, 72 hours of incubation

Compound	IC50 ([1]; Homo sapiens) [nM]	IC50 [2, 4] [nM]	IC50 (U373 glioma cells; Homo sapiens, U373 MG) [nM]	IC50 (Hs683 glioma cells; [5]) [nM]	IC50 (T98G glioma cells; Homo sapiens, T98G) [nM]	IC50 [1] [nM]	IC50 ([2]; 72 hours of incubation) [nM]	IC50 (U373 glioma cells) [nM]	IC50 (Hs683 glioma cells; 72 hours of incubation) [nM]	IC50 (T98G glioma cells) [nM]	IC50 [3] [nM]	Anti proliferative class (U373 cells)
CCCCCC[n+]1ccc2c3ccc(OCc4ccccc4)cc3n(Cc3ccccc3)c2c1C [CV53, 1-methyl-2-hexyl-7-benzyloxy-9-benzyl-β-carbolin-2-ium bromide]	1500 ± 600	1900 ± 300	660 ± 90	600 ± 100	3100 ± 500	–	–	–	–	–	–	–
CCC[n+]1ccc2c3ccc(OCc4ccccc4)cc3n(Cc3ccccc3)c2c1C [CV56, 1-methyl-2-propyl-7-benzyloxy-9-benzyl-β-carbolin-2-ium bromide]	5000 ± 2000	3400 ± 800	2500 ± 300	600 ± 100	11000 ± 1000	–	–	–	–	–	–	–
COc1ccc2c(c1)[nH]c1c(C)nccc12 [harmine, reference compound]	28000 ± 3000	32000 ± 2000	32000 ± 2000	–	24000 ± 2000	–	–	–	–	–	18000 ± 1000	I (class I: actually cytostatic for 3 days (<10% of cell death at the 3rd day))

Now from value to compound, other results behind:

IC50 ([1]; Homo sapiens) [nM]	IC50 [2, 4] [nM]	IC50 (U373 glioma cells; Homo sapiens, U373 MG) [nM]	IC50 (Hs683 glioma cells; [5]) [nM]	IC50 (T98G glioma cells; Homo sapiens, T98G) [nM]	IC50 [1] [nM]	IC50 ([2]; 72 hours of incubation) [nM]	IC50 (U373 glioma cells) [nM]	IC50 (Hs683 glioma cells; 72 hours of incubation) [nM]	IC50 (T98G glioma cells) [nM]	Compound	IC50 [3] [nM]	Anti proliferative class (U373 cells)
–	–	–	–	–	32000 ± 11000	25000 ± 4000	9000 ± 2000	31000 ± 3000	61000 ± 6000	Cc1c2c(cc[n+]1CCO)c1ccc(OCc3ccccc3)cc1n2Cc1ccccc1 [PL1]	–	–
600 ± 200	500 ± 90	390 ± 10	370 ± 30	1200 ± 200	–	–	–	–	–	Cc1c2c(cc[n+]1CCC(C)C)c1ccc(OCc3ccccc3)cc1n2Cc1ccccc1 [PL2, 1-methyl-2-(3-methylbutyl)-7-benzyloxy-9-benzyl-β-carbolin-2-ium bromide]	–	–
2300 ± 100	2400 ± 300	2000 ± 300	2310 ± 90	2400 ± 400	–	–	–	–	–	Cc1c2c(cc[n+]1CCc1ccccc1)c1ccc(OCc3ccccc3)cc1n2Cc1ccccc1 [PL4, 1-methyl-2-phenethyl-7-benzyloxy-9-benzyl-β-carbolin-2-ium bromide]	–	–
–	–	–	–	–	4000 ± 1000	7600 ± 300	2500 ± 300	4000 ± 300	2900 ± 400	Cc1c2c(cc[n+]1CCO)c1ccc(OCCC(C)C)cc1n2CCC(C)C [PL11]	–	–
–	–	–	–	–	340 ± 60	480 ± 40	220 ± 30	260 ± 10	410 ± 10	Cc1c2c(cc[n+]1CCC(C)C)c1ccc(OCCC(C)C)cc1n2CCC(C)C [PL12]	–	–
–	–	–	–	–	3400 ± 100	3700 ± 100	3400 ± 100	3100 ± 100	3500 ± 100	Cc1c2c(cc[n+]1Cc1ccccc1)c1ccc(OCCC(C)C)cc1n2CCC(C)C [PL13]	–	–
